The target in one test is T1, EGFR tyrosine kinase (Homo sapiens, UniProt P00533).
T1 construct: Recombinant intracellular fragments of EGFR, erbB2 and erbB4; made in house; host or cells: baculovirus/Sf21 insect cells (cleared lysate used)
Put plainly: Test (a) protein tyrosine kinase phosphorylation assay, EGFR. The class given is biochemical. As to conditions: recombinant intracellular fragment, ATP at Km; read-out: IC50 Test (a): Inhibition of EGFR tyrosine kinase protein phosphorylation. Here is the method:
(§1) A) Protein Tyrosine Kinase Phosphorylation Assays
This test measures the ability of a test compound to inhibit the phosphorylation of a tyrosine containing polypeptide substrate by EGFR tyrosine kinase enzyme.
(§2) Recombinant intracellular fragments of EGFR, erbB2 and erbB4 (accession numbers X00588, X03363 and L07868 respectively) were cloned and expressed in the baculovirus/Sf21 system. Lysates were prepared from these cells by treatment with ice-cold lysis buffer (20 mM N-2-hydroxyethylpiperizine-N′-2-ethanesulfonic acid (HEPES) pH7.5, 150 mM NaCl, 10% glycerol, 1% Triton X-100, 1.5 mM MgCl2, 1 mM ethylene glycol-bis(β-aminoethyl ether) N′,N′,N′,N′-tetraacetic acid (EGTA), plus protease inhibitors and then cleared by centrifugation.
(§3) Constitutive kinase activity of these recombinant proteins was determined by their ability to phosphorylate a synthetic peptide (made up of a random co-polymer of Glutamic Acid, Alanine and Tyrosine in the ratio of 6:3:1). Specifically, Maxisorb™ 96-well immunoplates were coated with synthetic peptide (0.2 μg of peptide in a 200 μl phosphate buffered saline (PBS) solution and incubated at 4° C. overnight). Plates were washed in 50 mM HEPES pH 7.4 at room temperature to remove any excess unbound synthetic peptide. […]
(§4) The immobilised phospho-peptide product of the reaction was detected by immunological methods. […] After further washing, HRP activity in each well of the plate was measured […] using 22′-Azino-di-[3-ethylbenzthiazoline sulfonate (6)] diammonium salt crystals (ABTS™ from Roche) as a substrate.
(§5) Quantification of colour development and thus enzyme activity was achieved by the measurement of absorbance at 405 nm on a Molecular Devices ThermoMax microplate reader. Kinase inhibition for a given compound was expressed as an IC50 value. […] The range of phosphorylation was calculated from the positive (vehicle plus ATP) and negative (vehicle minus ATP) control values.

The target in the next test is T2, erbB2 tyrosine kinase (Homo sapiens, UniProt P04626).
T2 construct: Recombinant intracellular fragments of EGFR, erbB2 and erbB4; made in house; host or cells: baculovirus/Sf21 insect cells (cleared lysate used)
Put plainly: Test (a) protein tyrosine kinase phosphorylation assay, erbB2. As to conditions: recombinant intracellular fragment, ATP at Km; read-out: IC50 Test (a): Inhibition of erbB2 tyrosine kinase protein phosphorylation. The class given is biochemical. The method, then:
as §1, §2, §3, §4, §5

In test [1] the target is T3, erbB2 in a MCF7 derived cell line (Clone 24 cells) (Homo sapiens, UniProt P04626).
T3 construct: a cell line that overexpresses full length wild type erbB2 protein; expressed in transfected cells; host or cells: MCF7 (breast carcinoma) cells, 'Clone 24'
Put plainly: Test (c) Clone 24 phospho-erbB2 cell assay. In kind it is cell-based. As to conditions: Clone 24 cells (MCF7 transfected with full length erbB2), 4 hrs with compound; read-out: IC50 Test (c): Inhibition of erbB2 tyrosine kinase protein phosphorylation. Here is the method: c) Clone 24 phospho-erbB2 Cell Assay
This immunofluorescence end point assay measures the ability of a test compound to inhibit the phosphorylation of erbB2 in a MCF7 (breast carcinoma) derived cell line which was generated by transfecting MCF7 cells with the full length erbB2 gene using standard methods to give a cell line that overexpresses full length wild type erbB2 protein (hereinafter ‘Clone 24’ cells).
Clone 24 cells were cultured in Growth Medium (phenol red free Dulbecco's modified Eagle's medium (DMEM) containing 10% foetal bovine serum, 2 mM glutamine and 1.2 mg/ml G418) in a 7.5% CO2 air incubator at 37° C. Cells were harvested from T75 stock flasks by washing once in PBS phosphate buffered saline, pH7.4, Gibco No. 10010-015) and harvested using 2 mls of Trypsin (1.25 mg/ml)/ethylaminediaminetetraacetic acid (EDTA) (0.8 mg/ml) solution. The cells were resuspended in Growth Medium. Cell density was measured using a haemocytometer and viability was calculated using Trypan Blue solution before being further diluted in Growth Medium and seeded at a density of 1×10^4 cells per well (in 100 ul) into clear bottomed 96 well plates (Packard, No. 6005182).
3 days later, Growth Medium was removed from the wells and replaced with 100 ul Assay Medium (phenol red free DMEM, 2 mM glutamine, 1.2 mg/ml G418) either with or without erbB inhibitor compound. Plates were returned to the incubator for 4 hrs and then 20 μl of 20% formaldehyde solution in PBS was added to each well and the plate was left at room temperature for 30 minutes. This fixative solution was removed with a multichannel pipette, 100 μl of PBS was added to each well and then removed with a multichannel pipette and then 50 μl PBS was added to each well. Plates were then sealed and stored for up to 2 weeks at 4° C.
Immunostaining was performed at room temperature. […]
The Fluorescence signal is each well was measured using an Acumen Explorer Instrument (Acumen Bioscience Ltd.), a plate reader that can be used to rapidly quantitate features of images generated by laser-scanning. […]

Molecules are shown by their SMILES.

From US20070032508A1, “Quinazoline derivatives as tyrosine kinase inhibitors” (priority 2003, published 2007) come the findings set out here.

T2 sequence (P04626 676-1255 limits assumed): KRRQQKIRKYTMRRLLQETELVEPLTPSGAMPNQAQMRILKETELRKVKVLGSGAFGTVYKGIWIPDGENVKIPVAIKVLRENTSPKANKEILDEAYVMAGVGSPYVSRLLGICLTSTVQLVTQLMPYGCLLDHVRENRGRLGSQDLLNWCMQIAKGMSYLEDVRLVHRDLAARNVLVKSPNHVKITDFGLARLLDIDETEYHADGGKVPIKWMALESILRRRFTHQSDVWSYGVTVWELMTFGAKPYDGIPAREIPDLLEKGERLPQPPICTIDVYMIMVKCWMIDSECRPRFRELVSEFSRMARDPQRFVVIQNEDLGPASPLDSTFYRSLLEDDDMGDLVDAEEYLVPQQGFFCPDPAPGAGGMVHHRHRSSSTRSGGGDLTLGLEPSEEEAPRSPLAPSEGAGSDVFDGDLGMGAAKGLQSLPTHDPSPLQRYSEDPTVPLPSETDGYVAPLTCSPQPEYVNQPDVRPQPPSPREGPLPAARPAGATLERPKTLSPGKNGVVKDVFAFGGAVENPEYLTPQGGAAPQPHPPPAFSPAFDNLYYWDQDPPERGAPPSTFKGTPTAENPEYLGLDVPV
T1 sequence (P00533 669-1210 limits assumed): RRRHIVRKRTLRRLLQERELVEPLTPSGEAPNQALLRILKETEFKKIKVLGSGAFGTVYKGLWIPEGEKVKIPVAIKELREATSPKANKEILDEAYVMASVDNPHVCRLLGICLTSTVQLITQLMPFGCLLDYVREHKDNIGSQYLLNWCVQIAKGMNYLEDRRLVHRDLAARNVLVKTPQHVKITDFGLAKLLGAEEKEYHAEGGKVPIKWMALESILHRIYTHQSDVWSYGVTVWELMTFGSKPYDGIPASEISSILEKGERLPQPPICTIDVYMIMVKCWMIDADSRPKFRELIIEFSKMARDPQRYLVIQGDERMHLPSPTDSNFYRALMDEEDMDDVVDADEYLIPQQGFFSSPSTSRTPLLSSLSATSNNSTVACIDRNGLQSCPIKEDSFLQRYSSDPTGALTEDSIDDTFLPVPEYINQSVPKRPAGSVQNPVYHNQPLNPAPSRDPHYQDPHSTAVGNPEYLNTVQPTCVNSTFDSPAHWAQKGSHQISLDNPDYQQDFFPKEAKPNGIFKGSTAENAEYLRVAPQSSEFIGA
T3 sequence (P04626 23-1255): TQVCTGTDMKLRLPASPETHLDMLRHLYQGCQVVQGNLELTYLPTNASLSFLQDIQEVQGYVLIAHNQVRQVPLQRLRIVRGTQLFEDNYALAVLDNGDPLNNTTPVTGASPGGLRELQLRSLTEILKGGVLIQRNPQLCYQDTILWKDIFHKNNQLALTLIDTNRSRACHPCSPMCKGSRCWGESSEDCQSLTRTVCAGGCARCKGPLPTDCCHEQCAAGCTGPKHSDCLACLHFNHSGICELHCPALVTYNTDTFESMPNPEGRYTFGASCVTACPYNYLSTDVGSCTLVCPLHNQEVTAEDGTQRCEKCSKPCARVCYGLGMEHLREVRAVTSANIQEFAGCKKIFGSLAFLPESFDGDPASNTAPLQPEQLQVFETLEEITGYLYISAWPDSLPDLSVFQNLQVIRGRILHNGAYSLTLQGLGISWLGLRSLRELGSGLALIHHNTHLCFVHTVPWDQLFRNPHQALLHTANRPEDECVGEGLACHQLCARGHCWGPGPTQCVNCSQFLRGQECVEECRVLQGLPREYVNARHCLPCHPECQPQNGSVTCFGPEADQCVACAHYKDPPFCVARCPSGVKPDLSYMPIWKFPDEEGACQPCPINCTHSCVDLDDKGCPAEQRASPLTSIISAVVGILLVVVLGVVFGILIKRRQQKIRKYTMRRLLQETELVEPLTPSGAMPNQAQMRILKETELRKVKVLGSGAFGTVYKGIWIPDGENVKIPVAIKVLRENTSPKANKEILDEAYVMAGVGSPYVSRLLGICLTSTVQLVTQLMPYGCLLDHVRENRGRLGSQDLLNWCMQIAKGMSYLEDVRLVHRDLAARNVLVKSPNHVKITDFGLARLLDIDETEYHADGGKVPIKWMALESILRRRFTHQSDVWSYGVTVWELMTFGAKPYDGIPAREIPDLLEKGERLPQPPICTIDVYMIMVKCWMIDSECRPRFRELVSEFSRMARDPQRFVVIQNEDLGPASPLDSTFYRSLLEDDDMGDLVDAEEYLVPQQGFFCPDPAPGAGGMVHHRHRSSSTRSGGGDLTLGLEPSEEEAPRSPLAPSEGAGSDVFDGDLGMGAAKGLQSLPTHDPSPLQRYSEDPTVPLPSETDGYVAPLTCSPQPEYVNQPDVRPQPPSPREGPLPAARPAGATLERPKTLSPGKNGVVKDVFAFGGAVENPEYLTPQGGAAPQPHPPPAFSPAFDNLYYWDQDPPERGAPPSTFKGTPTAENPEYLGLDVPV

For orientation: IC50 means the concentration at which inhibition is half-maximal. On to `CN(C)CC(=O)N1CCC(Oc2ccc3ncnc(Nc4ccc(OCc5ccccn5)c(Cl)c4)c3c2)CC1` [Example 8], for which the IC50 at EGFR tyrosine kinase is 39 nM; at erbB2 tyrosine kinase it was 2 nM; in test [1] it was 210 nM.
For `CN(C)CC(=O)N1CCC(Oc2ccc3ncnc(Nc4ccc(OCc5cnccn5)c(Cl)c4)c3c2)CC1` [Example 9, N-[3-chloro-4-(pyrazin-2-ylmethoxy)phenyl]-6-({1-[(dimethylamino)acetyl]piperidin-4-yl}oxy)quinazolin-4-amine], in that order: 21 nM, 7 nM and 150 nM.
`CS(=O)(=O)N1CCC(COc2ccc3ncnc(Nc4ccc(OCc5ccccn5)c(Cl)c4)c3c2)C1` (stereo not drawn) [Example 14, N-[3-Chloro-4-(pyridin-2-ylmethoxy)phenyl]-6-{[1-(methylsulfonyl)pyrrolidin-3-yl]methoxy}quinazolin-4-amine]: the figures for the IC50 (on EGFR tyrosine kinase; at erbB2 tyrosine kinase; in test [1]) were 213 nM, 2 nM and 4 nM, respectively.
